The results in this text go back to PubChem BioAssay (NCI).

The structures appear in SMILES notation.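 Compound exposure: 48 hours, 5 concentrations, 96-well plates. At the GI50, growth is halved. TGI is the concentration that stops growth completely.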

Test systems include OVCAR-5 ovarian; HOP-92 NSCLC; OVCAR-4 ovarian; MOLT-4 leukemia; SNB-19 CNS; NCI-H226 lung; KM12 colon; TK-10 renal; CCRF-CEM leukemia; SK-MEL-2 melanoma.
Assay in all cases: NCI-60 cell line screen, 48 h

In the case of `CC[PH+](CC)CC.[Cl][Au]`, the GI50 with OVCAR-5 ovarian is 15.2 µM; in the assay on HOP-92 NSCLC it was 1.28 µM; in the assay on OVCAR-4 ovarian, 1.47 µM; in the assay on MOLT-4 leukemia, 0.682 µM; with SNB-19 CNS it was 2.26 µM; in the assay with NCI-H226 lung, 4.49 µM. Besides, the GI50 in the assay on KM12 colon is 11.6 µM; in the assay on TK-10 renal, 2 µM; with CCRF-CEM leukemia, 0.216 µM; in the assay on SK-MEL-2 melanoma it was 1.38 µM. The TGI came out at 28.5 µM in the assay on OVCAR-5 ovarian; 2.72 µM in the assay with HOP-92 NSCLC; 2.97 µM with OVCAR-4 ovarian; 2.69 µM in the assay with MOLT-4 leukemia; 6.14 µM in the assay with SNB-19 CNS; 9.32 µM in the assay on NCI-H226 lung. Moreover, the TGI is 26 µM in the assay with KM12 colon, 3.51 µM with TK-10 renal, 1.33 µM in the assay with CCRF-CEM leukemia and 2.95 µM in the assay on SK-MEL-2 melanoma.
For the compound `O=c1/c(=N\Nc2ccccc2)c2cccc3ccc4cccc1c4c32`, the TGI in the assay on OVCAR-5 ovarian, in the assay on HOP-92 NSCLC, with OVCAR-4 ovarian, with MOLT-4 leukemia, with SNB-19 CNS and with NCI-H226 lung was greater than 100 µM in each case. The TGI in the assay with KM12 colon, with TK-10 renal, in the assay with CCRF-CEM leukemia and with SK-MEL-2 melanoma was greater than 100 µM in each case.
For `C=C1C(OC(C)=O)CC(OC(C)=O)C2(C)C(OC(C)=O)C(OC(C)=O)C3=C(C)C(OC(=O)/C=C/c4ccccc4)CC(C(OC(C)=O)C12)C3(C)C` (stereo not given), the TGI in the assay with OVCAR-5 ovarian is greater than 100 µM; with HOP-92 NSCLC it was 65.7 µM; in the assay with OVCAR-4 ovarian, greater than 100 µM; in the assay on MOLT-4 leukemia, greater than 100 µM; with SNB-19 CNS it was greater than 100 µM; with NCI-H226 lung, greater than 100 µM. The TGI in the assay with KM12 colon, in the assay on TK-10 renal, in the assay on CCRF-CEM leukemia and with SK-MEL-2 melanoma was greater than 100 µM each time.
Turning to `CCOC(=O)/C=C/c1cccc(F)c1`, the TGI in the assay with OVCAR-5 ovarian, in the assay with HOP-92 NSCLC, in the assay on OVCAR-4 ovarian, in the assay with MOLT-4 leukemia, with SNB-19 CNS and in the assay on NCI-H226 lung was greater than 100 µM each time. For the same compound, the TGI in the assay on KM12 colon, in the assay with TK-10 renal, in the assay with CCRF-CEM leukemia and in the assay on SK-MEL-2 melanoma was greater than 100 µM each time.
As to `Nc1cccc2c1C(=O)c1cccc(NC(=O)c3ccccc3)c1C2=O`, the GI50 is 1.92 µM in the assay on OVCAR-5 ovarian; 0.34 µM in the assay with HOP-92 NSCLC; 5.07 µM with OVCAR-4 ovarian; 0.751 µM in the assay on MOLT-4 leukemia; 0.591 µM in the assay on SNB-19 CNS; 1.7 µM in the assay on NCI-H226 lung. Besides, the GI50 was 0.374 µM with KM12 colon, 1.13 µM in the assay with TK-10 renal, 0.401 µM in the assay with CCRF-CEM leukemia and 0.25 µM with SK-MEL-2 melanoma. For the same compound, the TGI with OVCAR-5 ovarian was greater than 100 µM; in the assay on HOP-92 NSCLC, 6.72 µM; with OVCAR-4 ovarian, greater than 100 µM; in the assay with MOLT-4 leukemia, greater than 100 µM; with SNB-19 CNS it was greater than 100 µM; in the assay on NCI-H226 lung, greater than 100 µM. Besides, the TGI in the assay with KM12 colon was greater than 100 µM; in the assay on TK-10 renal, 8.13 µM; with CCRF-CEM leukemia, greater than 100 µM; with SK-MEL-2 melanoma, 7.26 µM.
Regarding `COc1ccc2nc3cc(Cl)ccc3c(Nc3cc(CN4CCCC4)c(O)c(CN4CCCC4)c3)c2n1`, the GI50 in the assay on OVCAR-5 ovarian is 2.66 µM; with HOP-92 NSCLC it was 1.04 µM; in the assay on OVCAR-4 ovarian it was 1.12 µM; with MOLT-4 leukemia, 0.41 µM; with SNB-19 CNS, 1.84 µM; in the assay on NCI-H226 lung, 1.55 µM. The GI50 in the assay with KM12 colon is 1.66 µM; in the assay on TK-10 renal, 5.69 µM; with CCRF-CEM leukemia, 1.12 µM; with SK-MEL-2 melanoma, 1.73 µM. Also, the TGI in the assay with OVCAR-5 ovarian stood at 11.9 µM; in the assay on HOP-92 NSCLC, 3.74 µM; in the assay with OVCAR-4 ovarian, 4.72 µM; in the assay with MOLT-4 leukemia it was 2.51 µM; in the assay on SNB-19 CNS, 10.7 µM; in the assay with NCI-H226 lung, 3.24 µM. In addition, the TGI in the assay with KM12 colon is 10.9 µM; in the assay on TK-10 renal, 66.3 µM; in the assay on CCRF-CEM leukemia it was 4.03 µM; in the assay with SK-MEL-2 melanoma, 3.26 µM.
For the compound `Cc1cc(O)c(-c2ccc([C@@H](C)CN(C)C)cc2)c2c1[nH]c(=O)c1sccc12`, the GI50 with OVCAR-5 ovarian was 2.25 µM; in the assay on HOP-92 NSCLC, 0.848 µM; with OVCAR-4 ovarian, 0.769 µM; in the assay on MOLT-4 leukemia it was 1.69 µM; in the assay with SNB-19 CNS it was 0.724 µM; in the assay with NCI-H226 lung, 1.75 µM. For the same compound, the GI50 with KM12 colon was 0.482 µM; in the assay on TK-10 renal, 0.647 µM; in the assay with CCRF-CEM leukemia, 1.77 µM; with SK-MEL-2 melanoma it was 0.679 µM. Moreover, the TGI was found to be 17.5 µM in the assay on OVCAR-5 ovarian; 5.35 µM with HOP-92 NSCLC; 10.6 µM in the assay with OVCAR-4 ovarian; 17.7 µM with MOLT-4 leukemia; 23.3 µM with SNB-19 CNS; 18.4 µM in the assay on NCI-H226 lung. In addition, the TGI in the assay on KM12 colon is 6.71 µM; with TK-10 renal, 5.87 µM; in the assay with CCRF-CEM leukemia it was greater than 41.9 µM; with SK-MEL-2 melanoma, 3.04 µM.
For the compound `O=C(/C=C/C12c3ccccc3C(c3ccccc31)C1C(=O)NC(=O)C12)c1ccccc1` (stereo not given), the GI50 is 2.01 µM in the assay on OVCAR-5 ovarian; 1.41 µM in the assay with HOP-92 NSCLC; 2.3 µM in the assay on OVCAR-4 ovarian; 2.17 µM in the assay on MOLT-4 leukemia; 1.66 µM in the assay on SNB-19 CNS; 2.28 µM in the assay on NCI-H226 lung. Also, the GI50 in the assay on KM12 colon was 2.72 µM; with TK-10 renal, 2.79 µM; with CCRF-CEM leukemia it was 2.17 µM; with SK-MEL-2 melanoma it was 2.35 µM. Also, the TGI with OVCAR-5 ovarian came out at 4.83 µM; in the assay with HOP-92 NSCLC, 3.52 µM; with OVCAR-4 ovarian, 12.1 µM; in the assay with MOLT-4 leukemia, 11.6 µM; in the assay on SNB-19 CNS it was 3.34 µM; in the assay on NCI-H226 lung, 6.51 µM. Further, the TGI in the assay with KM12 colon is 11 µM; with TK-10 renal it was 6.34 µM; in the assay on CCRF-CEM leukemia, 12.5 µM; in the assay on SK-MEL-2 melanoma, 4.62 µM.
With `O=c1[nH]c(=O)n(C2CC(O)C(CO)O2)cc1C(F)(F)F` (stereo not given), the GI50 with OVCAR-5 ovarian was greater than 100 µM; in the assay with HOP-92 NSCLC it was greater than 100 µM; with OVCAR-4 ovarian it was greater than 100 µM; in the assay on MOLT-4 leukemia it was 1.65 µM; with SNB-19 CNS, 2.96 µM; in the assay on NCI-H226 lung, 20.7 µM. Further, the GI50 was greater than 100 µM with KM12 colon, greater than 100 µM in the assay with TK-10 renal, 0.557 µM with CCRF-CEM leukemia and greater than 100 µM with SK-MEL-2 melanoma. For the same compound, the TGI with OVCAR-5 ovarian, in the assay with HOP-92 NSCLC, in the assay on OVCAR-4 ovarian, with MOLT-4 leukemia, in the assay on SNB-19 CNS and in the assay on NCI-H226 lung was greater than 100 µM in each case. In addition, the TGI in the assay on KM12 colon, in the assay on TK-10 renal, in the assay with CCRF-CEM leukemia and in the assay with SK-MEL-2 melanoma was greater than 100 µM in each case.
As for `C=C1C[C@@H]2C[C@@H](C)CC(O)[C@]2(CCCN)C1O` (stereo not given in full), the TGI in the assay with OVCAR-5 ovarian, in the assay on HOP-92 NSCLC, with OVCAR-4 ovarian, in the assay on MOLT-4 leukemia, with SNB-19 CNS and with NCI-H226 lung was greater than 100 µM in each case. Further, the TGI in the assay on KM12 colon, with TK-10 renal, with CCRF-CEM leukemia and in the assay on SK-MEL-2 melanoma was greater than 100 µM in each case.
On to `COc1cc2cnc3c4cc(OCc5ccccc5)ccc4ccc3c2cc1OC`, for which the TGI in the assay with OVCAR-5 ovarian was greater than 100 µM; in the assay on HOP-92 NSCLC, greater than 100 µM; in the assay with OVCAR-4 ovarian, 39.8 µM; in the assay on MOLT-4 leukemia it was 30.9 µM; in the assay with SNB-19 CNS, greater than 100 µM; with NCI-H226 lung it was 72.6 µM. For the same compound, the TGI with KM12 colon is greater than 100 µM; in the assay on TK-10 renal it was 44 µM; in the assay on CCRF-CEM leukemia it was 17.3 µM; in the assay with SK-MEL-2 melanoma, 63 µM.
For the compound `C[C@@H]1CC[C@@]2(NC1)O[C@H]1C[C@H]3[C@@H]4CC[C@H]5C[C@@H](O)CC[C@]5(C)[C@H]4CC[C@]3(C)[C@H]1[C@@H]2C`, the TGI is greater than 100 µM in the assay with OVCAR-5 ovarian; greater than 100 µM in the assay with HOP-92 NSCLC; 71.7 µM in the assay with OVCAR-4 ovarian; greater than 100 µM with MOLT-4 leukemia; greater than 100 µM with SNB-19 CNS; greater than 100 µM in the assay with NCI-H226 lung. Also, the TGI was 66.8 µM with KM12 colon, greater than 100 µM with TK-10 renal, greater than 100 µM in the assay with CCRF-CEM leukemia and greater than 100 µM with SK-MEL-2 melanoma.
In the case of `COc1ccc2[nH]c(C(=O)OCc3ccc4c(Cl)cc(Cl)c(O)c4n3)cc2c1`, the GI50 was 1.49 µM with OVCAR-5 ovarian; 0.456 µM in the assay with HOP-92 NSCLC; 1.49 µM in the assay on OVCAR-4 ovarian; 1.03 µM in the assay with MOLT-4 leukemia; 2.18 µM in the assay on SNB-19 CNS; 1.42 µM with NCI-H226 lung. The GI50 with KM12 colon is 1.76 µM; with TK-10 renal, 1.68 µM; with CCRF-CEM leukemia, 0.312 µM; in the assay on SK-MEL-2 melanoma it was 1.61 µM. Further, the TGI amounted to 2.9 µM with OVCAR-5 ovarian; 1.99 µM in the assay on HOP-92 NSCLC; 2.92 µM in the assay with OVCAR-4 ovarian; 3.72 µM with MOLT-4 leukemia; 5.69 µM in the assay with SNB-19 CNS; 3.07 µM in the assay with NCI-H226 lung. In addition, the TGI with KM12 colon came out at 3.49 µM; in the assay with TK-10 renal, 3.05 µM; with CCRF-CEM leukemia, 2.08 µM; in the assay with SK-MEL-2 melanoma, 3.37 µM.
